Measured values reported in patent publication EP3666765A1, “CHROMENIC PHYTOCANNABINOIDS, THEIR SYNTHESIS AND USE IN TREATMENT OR PREVENTION OF DISEASE” (Emerald Health Biotechnology España,S.L.U., priority 2018, dated 2020).

Target: T1, mono-acyl glycerol lipase (MAGL) (Homo sapiens, UniProt Q99685)
T1 construct: purchased Cayman Chemical
T1 sequence (Q99685 1-303): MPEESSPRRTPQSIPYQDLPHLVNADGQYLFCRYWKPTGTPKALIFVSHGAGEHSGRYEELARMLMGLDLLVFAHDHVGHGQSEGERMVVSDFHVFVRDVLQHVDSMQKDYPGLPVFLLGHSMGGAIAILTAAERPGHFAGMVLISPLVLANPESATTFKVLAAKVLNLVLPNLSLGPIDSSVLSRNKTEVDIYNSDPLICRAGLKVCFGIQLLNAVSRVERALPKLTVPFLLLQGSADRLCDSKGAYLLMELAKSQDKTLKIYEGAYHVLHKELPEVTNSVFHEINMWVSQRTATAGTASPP
Experiment: In vitro inhibition of mono-acyl glycerol lipase (Monoacylglycerol Lipase Inhibitor Screening Assay Kit, Cayman Chemical; colorimetric)
Format: biochemical
Conditions: human recombinant enzyme; 5 min pre-incubation at room temperature (20 °C); substrate 4-nitrophenylacetate (236 µM), 30 min; absorbance at 412 nm; read-out: IC50 against MAGL
Method: The ability of the compounds of the present invention to inhibit mono-acyl glycerol lipase (MAGL) was estimated using their IC50 value. MALG inhibition was measured using the Monoacylglycerol Lipase Inhibitor Screening Assay Kit (Cayman Chemical, USA). Briefly, in 96-well plate, samples and human recombinant enzyme were incubated for five minutes at room temperature (20 °C). After that, an ethanolic solution of 4-nitrophenylacetate (236 µM), as colorimetric substrate, was added to the wells and plates were incubated for 30 minutes at room temperature. Finally, absorbance was measured at 412 nm. JZL195 {(4-nitrophenyl)-4-[(3-phenoxyphenyl)methyl]piperazine-1-carboxylate, 5 µM} was used as a positive control. Background obtained was subtracted in each experimental value and the percentage of inhibition was established with the formula (Absorbance 100% Activity - Absorbance of the sample)/Absorbance 100% Activity. Table 1: MAGL inhibition (IC50) for compounds of the invention

CCCCCC1=CC(=O)C2=C(OC(C)(C)C=C2)C1=O [(B), 2,2-dimethyl-7-pentyl-chromene-5,8-dione]
IC50: 4.5 µM

CCCC1=CC(=O)C2=C(OC(C)(CCC=C(C)C)C=C2)C1=O (stereo not drawn) [(C), 2-methyl-2-(4-methylpent-3-enyl)-7-propyl-chromene-5,8-dione]
IC50: 6.64 µM

CCCCCC1=CC(=O)C2=C(OC(C)(CCC=C(C)C)C=C2)C1=O (stereo not drawn) [(A), 2-methyl-2-(4-methylpent-3-enyl)-7-pentyl-chromene-5,8-dione]
IC50: 4.44 µM
